Data: patent US10376555B2, “Identification of cyclic peptide agonists of galanin receptor 2 and 3 guided by spexin solution structure” (Hong Kong Baptist University, priority 2017, dated 2019)
Positions of bridges follow the written chain, without caps; N, C: chain ends. Residues, ends and D or L forms follow the SMILES beside them. No end group written: not given here.

Columns and labels:
hGalR2 = target: T1, hGalR2 (Homo sapiens, UniProt O43603); assay: SRE-Luc receptor activation assay, hGalR2; assay type: cell-based; details: for hGalR2 Emax: Relative to hSPX Emax; for activity on GalR2, in words: full-dose SRE-Luc; for effect of cysteine mutation on receptor activation of GalR2: single dose (1 μM, 6 hours), compared with wild type hSPX
T1 construct: host or cells: HEK293
T1 sequence (O43603 1-387): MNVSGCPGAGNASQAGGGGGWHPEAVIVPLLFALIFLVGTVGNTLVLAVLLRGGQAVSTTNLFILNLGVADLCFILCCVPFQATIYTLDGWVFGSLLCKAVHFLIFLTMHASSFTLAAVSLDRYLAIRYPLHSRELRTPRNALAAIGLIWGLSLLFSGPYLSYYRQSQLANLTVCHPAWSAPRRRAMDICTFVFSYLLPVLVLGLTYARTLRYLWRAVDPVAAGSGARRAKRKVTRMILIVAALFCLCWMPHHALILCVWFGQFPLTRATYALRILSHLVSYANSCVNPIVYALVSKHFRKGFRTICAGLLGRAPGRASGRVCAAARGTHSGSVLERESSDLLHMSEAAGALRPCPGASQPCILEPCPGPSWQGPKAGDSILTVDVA

hGalR1 = target: T2, hGalR1 (Homo sapiens, UniProt P47211); assay: SRE-Luc receptor activation assay, hGalR1; assay type: cell-based; details: for hGalR1 Emax: Relative to hGAL Emax; for activity on GalR1, in words: full-dose SRE-Luc
T2 sequence (P47211 1-349): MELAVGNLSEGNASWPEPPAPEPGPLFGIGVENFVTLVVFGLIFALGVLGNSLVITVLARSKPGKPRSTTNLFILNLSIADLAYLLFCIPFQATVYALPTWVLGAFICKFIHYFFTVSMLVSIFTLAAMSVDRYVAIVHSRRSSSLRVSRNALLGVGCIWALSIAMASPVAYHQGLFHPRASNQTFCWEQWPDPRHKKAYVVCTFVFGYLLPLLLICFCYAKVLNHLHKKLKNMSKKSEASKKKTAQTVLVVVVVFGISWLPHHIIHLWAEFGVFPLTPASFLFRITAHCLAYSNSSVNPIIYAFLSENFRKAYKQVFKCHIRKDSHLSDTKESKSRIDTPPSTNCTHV

hGalR3 = target: T3, hGalR3 (Homo sapiens, UniProt O60755); assay: SRE-Luc receptor activation assay, hGalR3; assay type: cell-based; details: for hGalR3 Emax: Relative to hSPX Emax; for activity on GalR3, in words: full-dose SRE-Luc; for effect of cysteine mutation on receptor activation of GalR3: single dose (1 μM, 6 hours), compared with wild type hSPX
T3 construct: host or cells: HEK293
T3 sequence (O60755 1-368): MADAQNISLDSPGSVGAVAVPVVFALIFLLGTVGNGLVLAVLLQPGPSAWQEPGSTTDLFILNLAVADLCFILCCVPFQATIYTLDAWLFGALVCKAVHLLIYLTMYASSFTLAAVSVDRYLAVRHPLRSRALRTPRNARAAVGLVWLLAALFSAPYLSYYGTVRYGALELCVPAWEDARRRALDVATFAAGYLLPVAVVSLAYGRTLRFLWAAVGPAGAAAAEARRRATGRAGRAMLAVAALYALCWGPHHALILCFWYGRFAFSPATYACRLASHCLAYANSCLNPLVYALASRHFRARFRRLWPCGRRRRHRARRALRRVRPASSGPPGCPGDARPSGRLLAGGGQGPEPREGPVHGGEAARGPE

[1] = In vitro serum stability assay (RP-HPLC); assay type: in vitro ADME, rat; details: rat serum in RPMI 1640, 37° C., 100 μg/mL; read-out: serum half-life (t1/2)
Experimental: The serum stability of CSAs was tested using an in vitro assay followed by reverse-phase high-performance liquid chromatography (RP-HPLC) analysis (FIGS. 33-38).
750 μL RPMI medium 1640 (Thermo Fisher Scientific) was mixed with […] rat serum, and incubated at 37° C. for 15 min before adding peptide. The peptide dissolved in water was added into the reaction buffer to make a final concentration of 100 μg/mL. At each time point (5, 15, 30, 60, 120, 240, and 480 min), 100 μL reaction solution were taken, and mixed with 200 μL 6% trichloroacetic acid (TCA, Sigma-Aldrich). The resulting cloudy solution was cooled at 4° C. for 15 min, and centrifuged for 10 mins at 13,000 rpm. The supernatant was then analyzed by RP-HPLC. The extent of intact peptide was calculated based on the peak area and was normalized using a control sample.

[2] = HEK293 cells transfected with hGalR1, Gqi, SRE-Luc, 6 h treatment, full-dose

Row | Compound | hGalR1 EC50 (hGalR1; [2]) | activity on GalR3, in words (hGalR3) | activity on GalR2, in words (hGalR2) | effect of cysteine mutation on receptor activation of GalR2 (hGalR2) | effect of cysteine mutation on receptor activation of GalR3 (hGalR3) | hGalR2 Emax (hGalR2) | hGalR1 Emax (hGalR1) | EC50 (hGalR2) | hGalR3 EC50 (hGalR3; HEK293 cells transfected with hGalR3, Gqi, SRE-Luc, 6 h treatment, full-dose) | hGalR3 Emax (hGalR3) | activity on GalR1, in words (hGalR1) | half-life at 100 μg/mL [1] | EC50 (hGalR3) | EC50 (hGalR1; [2])
1 | CSCC[C@@H]1NC(=O)[C@H](C)NC(=O)[C@H](CCC(N)=O)NC(=O)[C@@H](NC(=O)[C@@H](NC(=O)[C@H](Cc2c[nH]c3ccccc23)NC(=O)[C@@H](N)CC(N)=O)[C@@H](C)O)CSSC[C@@H](C(=O)N[C@@H](CCC(N)=O)C(N)=O)NC(=O)CNC(=O)[C@H](CCCCN)NC(=O)[C@H](CC(C)C)NC(=O)[C@H](Cc2ccc(O)cc2)NC(=O)[C@H](CC(C)C)NC1=O [LH102] (H-NWTCQAMLYLKGCQ-NH2; disulfide 4-13; N-terminus assumed) | N.M. |  |  |  |  | 1.08 | N.M. |  |  |  |  |  |  | 
2 | CC(=O)N[C@H]1CSSC[C@@H](C(=O)N[C@@H](Cc2c[nH]cn2)C(=O)N[C@@H](C)C(=O)N[C@H](C(N)=O)C(C)C)NC(=O)CNC(=O)[C@H](CC(C)C)NC(=O)[C@H](CC(C)C)NC(=O)[C@H](Cc2ccc(O)cc2)NC(=O)CNC(=O)[C@H](C)NC(=O)[C@H](CO)NC(=O)[C@H](CC(N)=O)NC(=O)[C@H](CC(C)C)NC(=O)[C@H]([C@@H](C)O)NC(=O)[C@H](Cc2c[nH]c3ccccc23)NC1=O [LH201 (Ac)] (Ac-CWTLNSAGYLLGCHAV-NH2; disulfide 1-13) | N.M. | No activity |  |  |  | 1.16 | 0.22 | 480 nM | N.M. | 0.20 | No activity | 51.9 min |  | 
3 | CC(C)C[C@@H]1NC(=O)[C@H](CC(C)C)NC(=O)[C@H](Cc2ccc(O)cc2)NC(=O)CNC(=O)[C@H](C)NC(=O)[C@H](CO)NC(=O)[C@H](CC(N)=O)NC(=O)[C@H](CC(C)C)NC(=O)[C@H]([C@@H](C)O)NC(=O)[C@H](Cc2c[nH]c3ccccc23)NC(=O)[C@@H](N)CSSC[C@@H](C(=O)N[C@@H](Cc2c[nH]cn2)C(=O)N[C@@H](C)C(=O)N[C@H](C(N)=O)C(C)C)NC(=O)CNC1=O [LH201] (H-CWTLNSAGYLLGCHAV-NH2; disulfide 1-13) |  | only able to activate GalR3 at high doses | kept full activity on GalR2 |  |  | 1.00 | 0.35 | 120 nM |  | 0.55 | lost all activity on GalR1 | 169 min | > 10000 nM | > 10000 nM
4 | CC(C)C[C@H](NC(=O)[C@H](CC(C)C)NC(=O)[C@H](Cc1ccc(O)cc1)NC(=O)CNC(=O)[C@H](C)NC(=O)[C@H](CO)NC(=O)[C@H](CC(N)=O)NC(=O)[C@H](CC(C)C)NC(=O)[C@@H](NC(=O)[C@H](Cc1c[nH]c2ccccc12)NC(=O)CN)[C@@H](C)O)C(=O)NCC(=O)N1CCC[C@H]1C(=O)N[C@@H](Cc1c[nH]cn1)C(=O)N[C@@H](C)C(=O)N[C@H](C(N)=O)C(C)C [hGAL (1-16), reference compound] |  |  |  |  |  | 1.02 |  |  |  | 0.45 |  | 14.1 min | > 10000 nM | 
5 | CC(C)C[C@H](NC(=O)CNC(=O)[C@H](CC(N)=O)NC(=O)[C@H](CCCCN)NC(=O)[C@H](CC(=O)O)NC(=O)[C@H](CO)NC(=O)[C@H](Cc1ccccc1)NC(=O)[C@H](CO)NC(=O)[C@H](CCCNC(=N)N)NC(=O)[C@H](Cc1c[nH]cn1)NC(=O)[C@H](CC(N)=O)NC(=O)CNC(=O)[C@@H](NC(=O)[C@H](C)NC(=O)[C@H](Cc1c[nH]cn1)NC(=O)[C@@H]1CCCN1C(=O)CNC(=O)[C@H](CC(C)C)NC(=O)[C@H](CC(C)C)NC(=O)[C@H](Cc1ccc(O)cc1)NC(=O)CNC(=O)[C@H](C)NC(=O)[C@H](CO)NC(=O)[C@H](CC(N)=O)NC(=O)[C@H](CC(C)C)NC(=O)[C@@H](NC(=O)[C@H](Cc1c[nH]c2ccccc12)NC(=O)CN)[C@@H](C)O)C(C)C)C(=O)N[C@H](C(=O)N[C@@H](CO)C(N)=O)[C@@H](C)O [hGAL, reference compound] |  |  |  |  |  | 0.94 |  |  |  | 0.68 |  |  |  | 

Continued, in another order:

Row | hGalR1 EC50 (hGalR1; [2]) | activity on GalR3, in words (hGalR3) | activity on GalR2, in words (hGalR2) | effect of cysteine mutation on receptor activation of GalR2 (hGalR2) | effect of cysteine mutation on receptor activation of GalR3 (hGalR3) | Compound | hGalR2 Emax (hGalR2) | hGalR1 Emax (hGalR1) | EC50 (hGalR2) | hGalR3 EC50 (hGalR3; HEK293 cells transfected with hGalR3, Gqi, SRE-Luc, 6 h treatment, full-dose) | hGalR3 Emax (hGalR3) | activity on GalR1, in words (hGalR1) | half-life at 100 μg/mL [1] | EC50 (hGalR3) | EC50 (hGalR1; [2])
6 | N.M. | little effect on the potency | little effect on the potency | minimum effects | minimum effects | CSCC[C@H](NC(=O)[C@H](C)NC(=O)[C@H](CCC(N)=O)NC(=O)[C@@H]1CCCN1C(=O)[C@@H](NC(=O)[C@H](Cc1c[nH]c2ccccc12)NC(=O)[C@@H](N)CS)[C@@H](C)O)C(=O)N[C@@H](CC(C)C)C(=O)N[C@@H](Cc1ccc(O)cc1)C(=O)N[C@@H](CC(C)C)C(=O)N[C@@H](CCCCN)C(=O)NCC(=O)N[C@@H](C)C(=O)N[C@@H](CCC(N)=O)C(N)=O [hSPX (C1)] (H-CWTPQAMLYLKGAQ-NH2; N-terminus assumed) | 1.05 | N.M. |  |  | 1.00 |  |  |  | 
7 | N.M. | little effect on the potency | little effect on the potency | minimum effects | minimum effects | CSCC[C@H](NC(=O)[C@H](C)NC(=O)[C@H](CCC(N)=O)NC(=O)[C@H](CS)NC(=O)[C@@H](NC(=O)[C@H](Cc1c[nH]c2ccccc12)NC(=O)[C@@H](N)CC(N)=O)[C@@H](C)O)C(=O)N[C@@H](CC(C)C)C(=O)N[C@@H](Cc1ccc(O)cc1)C(=O)N[C@@H](CC(C)C)C(=O)N[C@@H](CCCCN)C(=O)NCC(=O)N[C@@H](C)C(=O)N[C@@H](CCC(N)=O)C(N)=O [hSPX (C4)] (H-NWTCQAMLYLKGAQ-NH2; N-terminus assumed) | 0.98 | N.M. |  |  | 0.91 |  |  |  | 
8 | N.M. | little effect on the potency | little effect on the potency | minimum effects | minimum effects | CSCC[C@H](NC(=O)[C@H](C)NC(=O)[C@H](CCC(N)=O)NC(=O)[C@@H]1CCCN1C(=O)[C@@H](NC(=O)[C@H](Cc1c[nH]c2ccccc12)NC(=O)[C@@H](N)CC(N)=O)[C@@H](C)O)C(=O)N[C@@H](CC(C)C)C(=O)N[C@@H](Cc1ccc(O)cc1)C(=O)N[C@@H](CC(C)C)C(=O)N[C@@H](CCCCN)C(=O)NCC(=O)N[C@@H](CS)C(=O)N[C@@H](CCC(N)=O)C(N)=O [hSPX (C13)] (H-NWTPQAMLYLKGCQ-NH2; N-terminus assumed) | 0.87 | N.M. |  |  | 0.88 |  |  |  | 
9 |  |  |  | severely impaired bioactivity | severely impaired bioactivity | C10: hSPX mutant with single mutation to cysteine at position 10 (NWTPQAMLYCKGAQ-NH2) |  |  |  |  |  |  |  |  | 
10 |  |  |  | severely impaired bioactivity | severely impaired bioactivity | C12: hSPX mutant with single mutation to cysteine at position 12 (NWTPQAMLYLKCAQ-NH2) |  |  |  |  |  |  |  |  | 
11 |  |  |  | severely impaired bioactivity | severely impaired bioactivity | C14: hSPX mutant with single mutation to cysteine at position 14 (NWTPQAMLYLKGAC-NH2) |  |  |  |  |  |  |  |  | 
